Assay results reported in patent publication US20060069132A1, “Azolecarboxamide herbicides” (priority 2004, published 2006).

How the values were obtained:
large crabgrass [1] = assay: Test B pre-/postemergence herbicide test; format: in vivo, Digitaria sanguinalis; conditions: for Plant response rating, Crabgrass, Large: preemergence; for Crabgrass, Large plant response rating: postemergence, visual rating, scale 0 (no effect) to 100 (complete control)
How it was run: (§1)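 Seeds were planted and treated preemergence with compounds formulated in a non-phytotoxic solvent mixture containing surfactant, while plants at the 1- to 4-leaf stage (2 to 18 cm) received postemergence sprays. Flooded paddy plants were grown to the 2-leaf stage. After 13 to 15 days in a greenhouse, injury was visually rated 0–100 against untreated controls.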

wheat = assay: Test B postemergence herbicide test; format: in vivo, Triticum aestivum; parameters: key to Wheat plant response rating: 0 = no effect, 100 = complete control; conditions: postemergence, visual rating, scale 0 (no effect) to 100 (complete control)
How it was run: (§2)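 After treating 2-leaf paddy plants or 2–18 cm postemergence plants (1 to 4 leaves) with formulated chemical, researchers kept them in a greenhouse for 13–15 days. Effects were judged visually versus controls: 0 indicates none, 100 total control.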

morningglory [2] = assay: Test B pre-/postemergence herbicide test; format: in vivo, Ipomoea coccinea; conditions: for Plant response rating, Morningglory: preemergence; for Morningglory plant response rating: postemergence, visual rating, scale 0 (no effect) to 100 (complete control)
How it was run: (§3)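 Response was scored visually 13 to 15 days after treatment against untreated greenhouse controls, 0 meaning no effect and 100 complete control. Formulations (solvent mixture plus surfactant) went onto soil after planting, onto foliage of 1- to 4-leaf plants, and onto 2-leaf plants in a flooded paddy set including rice and barnyardgrass.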

wild oat = assay: Test B postemergence herbicide test; format: in vivo, Avena fatua; conditions: postemergence, visual rating, scale 0 (no effect) to 100 (complete control)
How it was run: as §2

rice [3] = assay: Test B pre-/postemergence herbicide test; format: in vivo, Oryza sativa; conditions: preemergence, 125 g ai/ha; 0 to 100 scale, 0 is no effect, 100 is complete control
How it was run: as §1

barnyardgrass [4] = assay: Test A pre-/postemergence herbicide test; format: in vivo, Echinochloa crus-galli
How it was run: (§4)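 Plants are held in greenhouse about ten days after treatment, then compared with untreated controls and scored 0 (no effect) to 100 (complete control). Preemergence dosing is a directed soil spray on sown sandy loam; postemergence dosing is spray to runoff at 2–10 cm height.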

barnyardgrass [5] = assay: Test B pre-/postemergence herbicide test; format: in vivo, Echinochloa crus-galli; conditions: for Plant response rating, Barnyardgrass: preemergence; for Barnyardgrass plant response rating: postemergence, visual rating, scale 0 (no effect) to 100 (complete control)
How it was run: as §3

giant foxtail [6] = assay: Test A pre-/postemergence herbicide test; format: in vivo, Setaria faberi
How it was run: as §4

giant foxtail [7] = assay: Test B pre-/postemergence herbicide test; format: in vivo, Setaria faberi; conditions: for Plant response rating, Foxtail, Giant: preemergence; for Foxtail, Giant plant response rating: postemergence, visual rating, scale 0 (no effect) to 100 (complete control)
How it was run: as §1

pigweed = assay: Test B pre-/postemergence herbicide test; format: in vivo, Amaranthus retroflexus; conditions: for Plant response rating, Pigweed: preemergence; for Pigweed plant response rating: postemergence, visual rating, scale 0 (no effect) to 100 (complete control)
How it was run: as §1

morningglory [8] = assay: Test A pre-/postemergence herbicide test; format: in vivo, Ipomoea spp.
How it was run: as §4

cocklebur = assay: Test B pre-/postemergence herbicide test; format: in vivo, Xanthium strumarium; conditions: for Plant response rating, Cocklebur: preemergence; for Cocklebur plant response rating: postemergence, visual rating, scale 0 (no effect) to 100 (complete control)
How it was run: as §3

rice [9] = assay: Test B flooded paddy test; format: in vivo, Oryza sativa; conditions: 1000 g ai/ha, visual rating, scale 0 to 100 (0 no effect, 100 complete control), 13 to 15 days
How it was run: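 Visual ratings, 0 (no effect) to 100 (complete control), made versus controls after 13–15 d greenhouse. Paddy plants treated at 2-leaf stage; postemergence plants at 1- to 4-leaf stage, 2–18 cm tall.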

large crabgrass [10] = assay: Test A pre-/postemergence herbicide test; format: in vivo, Digitaria sanguinalis
How it was run: as §4

redroot pigweed = assay: Test A pre-/postemergence herbicide test; format: in vivo, Amaranthus retroflexus
How it was run: as §4

velvetleaf [11] = assay: Test A pre-/postemergence herbicide test; format: in vivo, Abutilon theophrasti
How it was run: as §4

ducksalad = assay: Test B flooded paddy test; format: in vivo, Heteranthera limosa; conditions: 1000 g ai/ha, visual rating, scale 0 to 100 (0 no effect, 100 complete control), 13 to 15 days
How it was run: (§5)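 Visual control ratings, 0–100 versus untreated controls, taken after 13 to 15 days in the greenhouse. Blackgrass received a postemergence spray at the 1- to 4-leaf stage (2–18 cm); ducksalad, umbrella sedge and barnyardgrass were flooded-paddy treated at 2 leaves.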

barnyardgrass [12] = assay: Test B flooded paddy test; format: in vivo, Echinochloa crus-galli; conditions: 1000 g ai/ha, visual rating, scale 0 to 100 (0 no effect, 100 complete control), 13 to 15 days
How it was run: as §5

corn = assay: Test B pre-/postemergence herbicide test; format: in vivo, Zea mays; conditions: for Plant response rating, Corn: preemergence; for Corn plant response rating: postemergence, visual rating, scale 0 (no effect) to 100 (complete control)
How it was run: as §1

Surinam grass = assay: Test B pre-/postemergence herbicide test; format: in vivo, Urochloa decumbens; conditions: for Plant response rating, Surinam Grass: preemergence; for Surinam Grass plant response rating: postemergence, visual rating, scale 0 (no effect) to 100 (complete control)
How it was run: as §1

blackgrass = assay: Test B postemergence herbicide test; format: in vivo, Alopecurus myosuroides; conditions: postemergence, visual rating, scale 0 (no effect) to 100 (complete control)
How it was run: as §5

[13] = system: small flower umbrella sedge; assay: Test B flooded paddy test; format: in vivo, Cyperus difformis; conditions: 1000 g ai/ha, visual rating, scale 0 to 100 (0 no effect, 100 complete control), 13 to 15 days
How it was run: as §5

velvetleaf [14] = assay: Test B pre-/postemergence herbicide test; format: in vivo, Abutilon theophrasti; conditions: for Plant response rating, Velvetleaf: preemergence; for Velvetleaf plant response rating: postemergence, visual rating, scale 0 (no effect) to 100 (complete control)
How it was run: as §1

lambsquarters = assay: Test B pre-/postemergence herbicide test; format: in vivo, Chenopodium album; conditions: for Plant response rating, Lambsquarters: preemergence; for Lambsquarters plant response rating: postemergence, visual rating, scale 0 (no effect) to 100 (complete control)
How it was run: as §1

[15] = 500 g ai/ha, visual rating 0-100, 0 no effect, 100 complete control
[16] = 125 g ai/ha, 0 to 100 scale, 0 is no effect, 100 is complete control
[17] = Postemergence, 500 g ai/ha, 0 to 100 scale, 0 no effect, 100 complete control
[18] = Postemergence, 2000 g ai/ha, 0 to 100 scale, 0 no effect, 100 complete control
[19] = Preemergence, 500 g ai/ha, visual rating, 0 to 100 scale (0 no effect, 100 complete control)
[20] = Preemergence, 2000 g ai/ha, visual rating, 0 to 100 scale (0 no effect, 100 complete control)
[21] = preemergence, 500 g ai/ha, visual injury, 0 to 100 scale (0 no effect, 100 complete control)

`CC(C)NS(=O)(=O)c1cccc(NC(=O)c2cc(C(C)(C)C)nn2C)c1` [Compound 124] was tested, and the “Plant response rating, Crabgrass, Large” value (large crabgrass [1]; [15]) was 0, the “Crabgrass, Large plant response rating” value (large crabgrass [1]; 125 g ai/ha) was 10 and the “Crabgrass, Large plant response rating” value (large crabgrass [1]; 500 g ai/ha) was 10. The “Plant response rating, Crabgrass, Large” value (large crabgrass [1]; [16]) was 0, the “Wheat plant response rating” value (wheat; 125 g ai/ha) was 0 and the “Wheat plant response rating” value (wheat; 500 g ai/ha) was 0. The “Plant response rating, Morningglory” value (morningglory [2]; [15]) was 0, the “Morningglory plant response rating” value (morningglory [2]; 125 g ai/ha) was 0 and the “Morningglory plant response rating” value (morningglory [2]; 500 g ai/ha) was 10. For the same compound, the “Plant response rating, Morningglory” value (morningglory [2]; [16]) was 0, the “Oat, Wild plant response rating” value (wild oat; 125 g ai/ha) was 0 and the “Oat, Wild plant response rating” value (wild oat; 500 g ai/ha) was 10. The “Plant response rating, Rice” value (rice [3]) was 0, the “Barnyardgrass plant response rating” value (barnyardgrass [4]; [17]) was 0 and the “Plant response rating, Barnyardgrass” value (barnyardgrass [4]; [18]) was 0. The “Barnyardgrass plant response rating” value (barnyardgrass [4]; [19]) was 0, the “Barnyardgrass plant response rating” value (barnyardgrass [4]; [20]) was 10 and the “Plant response rating, Barnyardgrass” value (barnyardgrass [5]; [15]) was 10. For the same compound, the “Barnyardgrass plant response rating” value (barnyardgrass [5]; 125 g ai/ha) was 0, the “Barnyardgrass plant response rating” value (barnyardgrass [5]; 500 g ai/ha) was 0 and the “Plant response rating, Barnyardgrass” value (barnyardgrass [5]; [16]) was 0. The “Foxtail, Giant plant response rating” value (giant foxtail [6]; [17]) was 0, the “Plant response rating, Foxtail, Giant” value (giant foxtail [6]; [18]) was 0 and the “Foxtail, Giant plant response rating” value (giant foxtail [6]; [19]) was 0. The “Foxtail, Giant plant response rating” value (giant foxtail [6]; [20]) was 0, the “Plant response rating, Foxtail, Giant” value (giant foxtail [7]; [15]) was 10 and the “Foxtail, Giant plant response rating” value (giant foxtail [7]; 125 g ai/ha) was 0. The “Foxtail, Giant plant response rating” value (giant foxtail [7]; 500 g ai/ha) was 10, the “Plant response rating, Foxtail, Giant” value (giant foxtail [7]; [16]) was 0 and the “Plant response rating, Pigweed” value (pigweed; [15]) was 90. For the same compound, the “Pigweed plant response rating” value (pigweed; 125 g ai/ha) was 20, the “Pigweed plant response rating” value (pigweed; 500 g ai/ha) was 70 and the “Plant response rating, Pigweed” value (pigweed; [16]) was 30. For the same compound, the “Morningglory plant response rating” value (morningglory [8]; [17]) was 5, the “Plant response rating, Morningglory” value (morningglory [8]; [18]) was 0 and the “Morningglory plant response rating” value (morningglory [8]; [19]) was 5. For the same compound, the “Morningglory plant response rating” value (morningglory [8]; [20]) was 15, the “Plant response rating, Cocklebur” value (cocklebur; [15]) was 0 and the “Cocklebur plant response rating” value (cocklebur; 125 g ai/ha) was 0. For the same compound, the “Cocklebur plant response rating” value (cocklebur; 500 g ai/ha) was 10, the “Plant response rating, Cocklebur” value (cocklebur; [16]) was 0 and the “Rice plant response rating” value (rice [9]) was 0. For the same compound, the “Crabgrass, Large plant response rating” value (large crabgrass [10]; [17]) was 10, the “Plant response rating, Crabgrass, Large” value (large crabgrass [10]; [18]) was 10 and the “Crabgrass, Large plant response rating” value (large crabgrass [10]; [19]) was 30. The “Crabgrass, Large plant response rating” value (large crabgrass [10]; [20]) was 15, the “Pigweed plant response rating” value (redroot pigweed; [17]) was 30 and the “Plant response rating, Pigweed” value (redroot pigweed; [18]) was 40. For the same compound, the “Pigweed plant response rating” value (redroot pigweed; [20]) was 75, the “Pigweed plant response rating” value (redroot pigweed; [21]) was 20 and the “Velvetleaf plant response rating” value (velvetleaf [11]; [17]) was 10. For the same compound, the “Plant response rating, Velvetleaf” value (velvetleaf [11]; [18]) was 10, the “Velvetleaf plant response rating” value (velvetleaf [11]; [20]) was 15 and the “Velvetleaf plant response rating” value (velvetleaf [11]; [21]) was 0. For the same compound, the “Ducksalad plant response rating” value (ducksalad) was 70, the “Barnyardgrass plant response rating” value (barnyardgrass [12]) was 0 and the “Plant response rating, Corn” value (corn; [15]) was 0. The “Corn plant response rating” value (corn; 125 g ai/ha) was 0, the “Corn plant response rating” value (corn; 500 g ai/ha) was 10 and the “Plant response rating, Corn” value (corn; [16]) was 0. The “Plant response rating, Surinam Grass” value (Surinam grass; [15]) was 10, the “Surinam Grass plant response rating” value (Surinam grass; 125 g ai/ha) was 10 and the “Surinam Grass plant response rating” value (Surinam grass; 500 g ai/ha) was 20. The “Plant response rating, Surinam Grass” value (Surinam grass; [16]) was 0, the “Blackgrass plant response rating” value (blackgrass; 125 g ai/ha) was 0 and the “Blackgrass plant response rating” value (blackgrass; 500 g ai/ha) was 0. The “Sedge, Umbrella plant response rating” value [13] was 0, the “Plant response rating, Velvetleaf” value (velvetleaf [14]; [15]) was 0 and the “Velvetleaf plant response rating” value (velvetleaf [14]; 125 g ai/ha) was 0. For the same compound, the “Velvetleaf plant response rating” value (velvetleaf [14]; 500 g ai/ha) was 10, the “Plant response rating, Velvetleaf” value (velvetleaf [14]; [16]) was 0 and the “Plant response rating, Lambsquarters” value (lambsquarters; [15]) was 80. The “Lambsquarters plant response rating” value (lambsquarters; 125 g ai/ha) was 30, the “Lambsquarters plant response rating” value (lambsquarters; 500 g ai/ha) was 70 and the “Plant response rating, Lambsquarters” value (lambsquarters; [16]) was 0.
